Reference: patent US20260248950A1, “ANTIMICROBIAL PEPTIDE DELIVERY SYSTEM AND MANUFACTURING METHOD BASED ON GOLD NANOPARTICLE-APTAMER CONJUGATE” (NES BIOTECHNOLOGY CO., LTD., priority 2022, published 2026)
Values after ≈ are worked out from the molar mass of the structure shown. Where two headings read alike, the source gives them in different places. Peptide text beside a SMILES is read from it. {SH} = thiol modification, used to bind gold nanoparticles

Experiments:
[1] = test system: Acinetobacter baumannii; assay: microbe, parasite or virus in culture; format: cell-based
Description: (§1) An experiment was conducted to determine the minimum inhibitory concentration (MIC) for multi-resistant strains in an antimicrobial activity test. Pseudomonas aeruginosa, Acinetobacter baumannii, and Staphylococcus aureus were cultured in LB medium at 1×10^3 colony-forming units (CFU)/ml. Each strain was treated with WLBU2 peptide and antibiotics, such as ampicillin and erythromycin, at concentrations of 2, 4, 8, 16, 32, 64, 128, 256, and 512 μM, respectively, and then incubated at 37° C. for 18 to 24 hours.
(§2) The minimum inhibitory concentration (MIC) was determined as the […].

[2] = test system: Pseudomonas aeruginosa; assay: microbe, parasite or virus in culture; format: cell-based
Description: as §1, §2

[3] = test system: Staphylococcus aureus; assay: microbe, parasite or virus in culture; format: cell-based
Description: as §1, §2

[4] = test system: WLBU2; assay: SELEX aptamer selection, sequencing fold change of samples binding to WLBU2 vs control; conditions: samples binding to WLBU2 compared to the control group; SELEX repeated 11 times
Description: Aptamers specific to the antimicrobial peptide WLBU2 were developed using the SELEX (Systematic Evolution of Ligands by Exponential Enrichment) method. The SELEX process was repeated a total of 11 times, and the optimal aptamers with high binding affinity to WLBU2 were selected. The aptamer selection process was conducted according to the procedure illustrated in FIG. 1.
Among all the sequences confirmed through sequencing, four representative sequences showing a fold change greater than 2-fold in the samples binding to WLBU2 compared to the control group were developed.

[5] = Pseudomonas aeruginosa, LB medium, 1×10^3 CFU/ml, 37° C., 18 to 24 hours

How did the MIC ([1]; Acinetobacter baumannii, LB medium, 1×10^3 CFU/ml, 37° C., 18 to 24 hours, read-out: MIC) turn out when `CC[C@H]1OC(=O)[C@H](C)[C@@H](O[C@H]2C[C@@](C)(OC)[C@@H](O)[C@H](C)O2)[C@H](C)[C@@H](O[C@@H]2O[C@H](C)C[C@H](N(C)C)[C@H]2O)[C@](C)(O)C[C@@H](C)C(=O)[C@H](C)[C@@H](O)[C@]1(C)O` [Erythromycin, erythromycin] was run?
Its MIC is > 256 µM.

And the MIC [2, 5]?
The MIC was > 64 µM.

And the MIC ([3]; Staphylococcus aureus, LB medium, 1×10^3 CFU/ml, 37° C., 18 to 24 hours, read-out: MIC)?
Its MIC is > 128 µM.

Which results are given for `CC1(C)S[C@@H]2[C@H](NC(=O)[C@H](N)c3ccccc3)C(=O)N2[C@H]1C(=O)O` [Ampicillin, ampicillin]?
MIC ([1]; Acinetobacter baumannii): > 256 µM; MIC [2, 5]: > 64 µM; MIC ([3]; Staphylococcus aureus): > 256 µM

How did the MIC ([1]; read-out: MIC) turn out when `CC(C)[C@H](NC(=O)[C@H](Cc1c[nH]c2ccccc12)NC(=O)[C@H](CCCNC(=N)N)NC(=O)[C@H](CCCNC(=N)N)NC(=O)[C@@H](NC(=O)[C@@H](NC(=O)[C@H](CCCNC(=N)N)NC(=O)[C@@H](NC(=O)[C@@H](NC(=O)[C@H](CCCNC(=N)N)NC(=O)[C@H](CCCNC(=N)N)NC(=O)[C@@H](NC(=O)[C@H](Cc1c[nH]c2ccccc12)NC(=O)[C@H](CCCNC(=N)N)NC(=O)[C@H](CCCNC(=N)N)NC(=O)[C@@H](NC(=O)[C@H](CCCNC(=N)N)NC(=O)[C@H](CCCNC(=N)N)NC(=O)[C@@H](NC(=O)[C@H](Cc1c[nH]c2ccccc12)NC(=O)[C@H](CCCNC(=N)N)NC(=O)[C@@H](N)CCCNC(=N)N)C(C)C)C(C)C)C(C)C)C(C)C)C(C)C)C(C)C)C(C)C)C(=O)N[C@@H](CCCNC(=N)N)C(=O)N[C@@H](CCCNC(=N)N)C(=O)O` [WLBU2] (H-RRWVRRVRRWVRRVVRVVRRWVRR-OH; N-terminus and C-terminus assumed) was run?
Its MIC is 8 µM (≈ 27.2 µg/mL).

What about the MIC [2] of the same molecule?
Its MIC is 4 µM (≈ 13.6 µg/mL).

And the MIC ([3]; read-out: MIC)?
The MIC was 4 µM (≈ 13.6 µg/mL).

B1: WLBU2-R-2: SELEX aptamer specific to WLBU2, SEQ No. 3 (nucleic acid)
DNA: AAAACGACGGCCAGTGGCTGGTAGGTTTGGGTGGTTTGGTTGGGATTCGGTTGGTTGGTACCAGCCATGGTCATAGCTGT
modifications: listed as DNA, chemistry not fully specified
How did the FoldChange [4] turn out when B1 was run?
Its FoldChange is 3.67.

B2: WLBU2-R: SELEX aptamer specific to WLBU2, SEQ No. 1 in Table 2; thiol-modified at 3′-terminal for binding to gold nanoparticles (nucleic acid)
DNA: AAAACGACGGCCAGTGCGCGCGCTTTGCTTGTGTGAGCATTGCTTTTGCATTATTGGTTTGGTTGGTGTGGTTCGTGCGCGCCATGGTCATAGCCTGT
modifications: DNA, 3' {SH}, backbone and methylation of C not given here
B2 was tested. Which FoldChange [4] did it give?
Its FoldChange is 2.2.

B3: WLBU2-R-1: SELEX aptamer specific to WLBU2, SEQ No. 2 (nucleic acid)
DNA: AAAACGACGGCCAGTCTTTCGCGGGGTCTGGGGTTGGGGTTGTGGGTTAATTGCACTTCGAAATGCATGGTCATAGCTGT
modifications: listed as DNA, chemistry not fully specified
Which FoldChange [4] does the source give for B3 here?
The FoldChange was 3.28.

B4: WLBU2-R-3: SELEX aptamer specific to WLBU2, SEQ No. 4 (nucleic acid)
DNA: AAAACGACGGCCAGTGCGCGCGCTTTGCTTGTGTGAGCATTGCTTTTGCATTATTGGTTTGGTTGGTGTGGTTCGTGCGCGCCATGGTCATAGCTGT
modifications: listed as DNA, chemistry not fully specified
With B4 as the molecule, how does the FoldChange [4] read?
Its FoldChange is 2.7.
